From patent US12544395B2, “Combination compositions comprising a beta-lactamase inhibitor and uses thereof” (priority 2018, dated 2026) come the findings set out here.

The subject of one experiment is E. coli SI-AIRT-4. As to the kind of experiment: Broth microdilution MIC (strain enzymes: TEM-1). The experiment is classed as cell-based. The settings on record: Escherichia coli, SIAIRT4; alone; read-out: MIC of ceftibuten (CTB). For orientation: In broth dilution the organism is exposed to a series of concentrations in liquid medium.
For a further experiment, the system named is E. coli 3327. The experiment is described as follows: Broth microdilution MIC (strain enzymes: TEM-1, SHV-12). Type of experiment: cell-based. Particulars: Escherichia coli, 3327; alone; read-out: MIC of ceftibuten (CTB).
The next experiment relates to K. pneumoniae KP 8. The experiment is described as follows: Broth microdilution MIC (strain enzymes: TEM-10, TEM-1, CTX-M15). The experiment is classed as cell-based. Particulars: Klebsiella pneumoniae, KP8; alone; read-out: MIC of ceftibuten (CTB).
Experiment [1] concerns three strains of E. coli expressing TEM-1+CTX-M-15, CTX-M-15, and KPC-2+SHV-12. The experiment is described as follows: MIC against the UTI test strains. The experiment is classed as cell-based. The settings on record: Escherichia coli; alone; read-out: Ceftibuten MICs.
The subject of the next experiment is E. coli ESBL 4. As to the kind of experiment: Broth microdilution MIC (strain enzymes: CTX-M15, TEM-1). Particulars: Escherichia coli, ESBL4; alone; read-out: MIC of ceftibuten (CTB). Type of experiment: cell-based.
Another experiment concerns K. pneumoniae KI (KCl). As to the kind of experiment: Broth microdilution MIC (strain enzymes: TEM-10). Type of experiment: cell-based. Particulars: Klebsiella pneumoniae; alone; read-out: MIC of ceftibuten (CTB).
For experiment [2], the system named is 21 strains of Enterobacteriaceae expressing various beta-lactamases. As to the kind of experiment: MIC testing of thigh model strains. The experiment is classed as cell-based. The settings on record: read-out: ceftibuten MICs.
A further experiment relates to K. pneumoniae 153239. As to the kind of experiment: Broth microdilution MIC (strain enzymes: SHV-11, TEM-1). Type of experiment: cell-based. The settings on record: Klebsiella pneumoniae, 153239; alone; read-out: MIC of ceftibuten (CTB).
The subject of another experiment is E. coli BAS 1. The experiment is described as follows: Broth microdilution MIC (strain enzymes: none detected). The experiment is classed as cell-based. Particulars: Escherichia coli, BAS1; alone; read-out: MIC of ceftibuten (CTB).
Experiment [3] has as its system E. coli expressing TEM-1+CTX-M-15, CTX-M-15, and KPC-2+SHV-12. As to the kind of experiment: Murine ascending UTI model, three strains. Type of experiment: in vivo, mice. The settings on record: mouse, in vivo.
The test system of a further experiment is K. pneumoniae 170375. As to the kind of experiment: Broth microdilution MIC (strain enzymes: SHV-12, CTX-M15 and TEM-1). The experiment is classed as cell-based. The settings on record: Klebsiella pneumoniae, 170375; alone; read-out: MIC of ceftibuten (CTB).
The test system of another experiment is K. pneumoniae 11/23 LF#2. The experiment is described as follows: microbe, parasite or virus in culture. Particulars: Klebsiella pneumoniae, read-out: MIC of ceftibuten (CTB). Type of experiment: cell-based.
For a further experiment, the system named is K. pneumoniae ESBL 10. As to the kind of experiment: Broth microdilution MIC (strain enzymes: SHV-12, TEM-1). The settings on record: Klebsiella pneumoniae, ESBL10; alone; read-out: MIC of ceftibuten (CTB). The experiment is classed as cell-based.
The subject of a further experiment is E. coli SI-LP377. As to the kind of experiment: microbe, parasite or virus in culture. Type of experiment: cell-based. The settings on record: Escherichia coli, SILP377, read-out: MIC of ceftibuten (CTB).
The next experiment concerns K. pneumoniae ESBL 7 #1. As to the kind of experiment: Broth microdilution MIC (strain enzymes: SHV-12, TEM-1). The experiment is classed as cell-based. Particulars: Klebsiella pneumoniae; alone; read-out: MIC of ceftibuten (CTB).
For another experiment, the system named is E. coli 3174. As to the kind of experiment: Broth microdilution MIC (strain enzymes: TEM-1, CTXM-15). Type of experiment: cell-based. Particulars: Escherichia coli, 3174; alone; read-out: MIC of ceftibuten (CTB).
Another experiment concerns E. coli SI-PBLII. The experiment is described as follows: Broth microdilution MIC (strain enzymes: CTX-M2, TEM-1). The experiment is classed as cell-based. Particulars: Escherichia coli; alone; read-out: MIC of ceftibuten (CTB).
For the next experiment, the system named is K. pneumoniae SI-KP NO30. As to the kind of experiment: Broth microdilution MIC (strain enzymes: TEM-26b, SHV-60, SHV-26). The experiment is classed as cell-based. The settings on record: Klebsiella pneumoniae, SIKPNO30; alone; read-out: MIC of ceftibuten (CTB).
The subject of the next experiment is E. coli 25922. The experiment is described as follows: Broth microdilution MIC (strain enzymes: None detected). The settings on record: Escherichia coli, 25922; alone; read-out: MIC of ceftibuten (CTB). The experiment is classed as cell-based.
The subject of another experiment is E. coli SI-M004. The experiment is described as follows: Broth microdilution MIC (strain enzymes: SHV-2, GES-12). Type of experiment: cell-based. The settings on record: Escherichia coli, SIM004; alone; read-out: MIC of ceftibuten (CTB).
A further experiment deals with K. pneumoniae 329633. The experiment is described as follows: Broth microdilution MIC (strain enzymes: SHV-5, TEM-1). Type of experiment: cell-based. Particulars: Klebsiella pneumoniae, 329633; alone; read-out: MIC of ceftibuten (CTB).
The test system of a further experiment is E. coli 2806. As to the kind of experiment: Broth microdilution MIC (strain enzymes: SHV-12, TEM-1). Type of experiment: cell-based. The settings on record: Escherichia coli, 2806; alone; read-out: MIC of ceftibuten (CTB).

≈ marks a conversion by molar mass, not a printed value.

Turning to `Nc1nc(/C(=C/CC(=O)O)C(=O)N[C@@H]2C(=O)N3C(C(=O)O)=CCS[C@H]23)cs1` [Ceftibuten, ceftibuten, reference compound], the MIC was 0.5 µg/mL in the experiment with E. coli SI-AIRT-4; 8 µg/mL with E. coli 3327; 0.25 µg/mL with K. pneumoniae KP 8; 8 to 64 µg/mL (≈ 19.5 to 156 µM) in experiment [1]; greater than 32 µg/mL in the experiment with E. coli ESBL 4; 1 µg/mL with K. pneumoniae KI (KCl). Further, the MIC in experiment [2] is no less than 32 µg/mL; in the experiment with K. pneumoniae 153239, 0.25 µg/mL; in the experiment with E. coli BAS 1 it was greater than 32 µg/mL; in the experiment with K. pneumoniae 170375, 32 µg/mL; with K. pneumoniae 11/23 LF#2, 2 µg/mL; in the experiment on K. pneumoniae ESBL 10, 16 µg/mL. Besides, the MIC was determined as 4 µg/mL in the experiment with E. coli SI-LP377; 32 µg/mL with K. pneumoniae ESBL 7 #1; 0.5 µg/mL with E. coli 3174; 0.5 µg/mL with E. coli SI-PBLII; 0.25 µg/mL in the experiment with K. pneumoniae SI-KP NO30; 0.25 µg/mL with E. coli 25922. In addition, the values for the MIC with E. coli SI-M004, with K. pneumoniae 329633 and in the experiment with E. coli 2806 were 32 µg/mL, 16 µg/mL and 2 µg/mL, respectively. In addition, the “CFU reductions in the kidneys” value in [3] was “minimal CFU reductions”.
